Test results: PubChem BioAssay (NCI)
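Cells were grown in 96-well plates and exposed to each compound for 48 hours at five concentrations; endpoints were interpolated linearly between bracketing concentrations, or set to the highest concentration if not reached. TGI denotes the concentration required for complete inhibition of growth.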

Experiments:
Assay in all cases: NCI anticancer screen, dose series, 48 h
HS 578T breast = test system: HS 578T breast
786-0 renal = test system: 786-0 renal
SK-MEL-2 melanoma = test system: SK-MEL-2 melanoma
NCI-H226 lung = test system: NCI-H226 lung
OVCAR-4 ovarian = test system: OVCAR-4 ovarian
A498 renal = test system: A498 renal
SF-295 CNS = test system: SF-295 CNS
KM12 colon = test system: KM12 colon
LOX IMVI melanoma = test system: LOX IMVI melanoma
HL-60(TB) leukemia = test system: HL-60(TB) leukemia
BT-549 breast = test system: BT-549 breast
SF-539 CNS = test system: SF-539 CNS
UACC-62 melanoma = test system: UACC-62 melanoma
MDA-N = test system: MDA-N
CAKI-1 renal = test system: CAKI-1 renal
HCC-2998 colon = test system: HCC-2998 colon
IGROV1 ovarian = test system: IGROV1 ovarian
UO-31 renal = test system: UO-31 renal
MALME-3M melanoma = test system: MALME-3M melanoma
SF-268 CNS = test system: SF-268 CNS
MDA-MB-435 = test system: MDA-MB-435
TK-10 renal = test system: TK-10 renal
NCI-H23 lung = test system: NCI-H23 lung
T-47D breast = test system: T-47D breast
SK-MEL-28 melanoma = test system: SK-MEL-28 melanoma
MCF7 breast = test system: MCF7 breast
OVCAR-3 ovarian = test system: OVCAR-3 ovarian
SK-OV-3 ovarian = test system: SK-OV-3 ovarian
RXF 393 renal = test system: RXF 393 renal
DU-145 prostate = test system: DU-145 prostate
SK-MEL-5 melanoma = test system: SK-MEL-5 melanoma
COLO 205 colon = test system: COLO 205 colon
U251 CNS = test system: U251 CNS
A549 NSCLC = test system: A549 NSCLC
OVCAR-8 ovarian = test system: OVCAR-8 ovarian
OVCAR-5 ovarian = test system: OVCAR-5 ovarian
RPMI-8226 leukemia = test system: RPMI-8226 leukemia
HCT-116 colon = test system: HCT-116 colon
HCT-15 colon = test system: HCT-15 colon
NCI-H460 lung = test system: NCI-H460 lung
SNB-19 CNS = test system: SNB-19 CNS
M14 melanoma = test system: M14 melanoma
PC-3 prostate = test system: PC-3 prostate
HT29 colon = test system: HT29 colon
UACC-257 melanoma = test system: UACC-257 melanoma
SN12C renal = test system: SN12C renal
MOLT-4 leukemia = test system: MOLT-4 leukemia
SNB-75 CNS = test system: SNB-75 CNS
NCI/ADR-RES ovarian = test system: NCI/ADR-RES ovarian
NCI-H522 lung = test system: NCI-H522 lung
HOP-62 NSCLC = test system: HOP-62 NSCLC
SW-620 colon = test system: SW-620 colon
ACHN renal = test system: ACHN renal
HOP-92 NSCLC = test system: HOP-92 NSCLC
MDA-MB-231 breast = test system: MDA-MB-231 breast
SR leukemia = test system: SR leukemia
CCRF-CEM leukemia = test system: CCRF-CEM leukemia
EKVX NSCLC = test system: EKVX NSCLC
K-562 leukemia = test system: K-562 leukemia

Compound: Cn1c(-c2ccccc2)cc2c3ccsc3c3ccsc3c21
- TGI (HS 578T breast): > 100 µM
- TGI (786-0 renal): > 100 µM
- TGI (SK-MEL-2 melanoma): > 100 µM
- TGI (NCI-H226 lung): > 100 µM
- TGI (OVCAR-4 ovarian): > 100 µM
- TGI (A498 renal): > 100 µM
- TGI (SF-295 CNS): > 100 µM
- TGI (KM12 colon): > 100 µM
- TGI (LOX IMVI melanoma): > 100 µM
- TGI (HL-60(TB) leukemia): > 100 µM
- TGI (BT-549 breast): > 100 µM
- TGI (SF-539 CNS): > 100 µM
- TGI (UACC-62 melanoma): > 100 µM
- TGI (MDA-N): > 100 µM
- TGI (CAKI-1 renal): > 100 µM
- TGI (HCC-2998 colon): > 100 µM
- TGI (IGROV1 ovarian): > 100 µM
- TGI (UO-31 renal): > 100 µM
- TGI (MALME-3M melanoma): > 100 µM
- TGI (SF-268 CNS): > 100 µM
- TGI (MDA-MB-435): > 100 µM
- TGI (TK-10 renal): > 100 µM
- TGI (NCI-H23 lung): > 100 µM
- TGI (T-47D breast): > 100 µM
- TGI (SK-MEL-28 melanoma): > 100 µM
- TGI (MCF7 breast): > 100 µM
- TGI (OVCAR-3 ovarian): > 100 µM
- TGI (SK-OV-3 ovarian): > 100 µM
- TGI (RXF 393 renal): > 100 µM
- TGI (DU-145 prostate): > 100 µM
- TGI (SK-MEL-5 melanoma): > 100 µM
- TGI (COLO 205 colon): > 100 µM
- TGI (U251 CNS): > 100 µM
- TGI (A549 NSCLC): > 100 µM
- TGI (OVCAR-8 ovarian): > 100 µM
- TGI (OVCAR-5 ovarian): > 100 µM
- TGI (RPMI-8226 leukemia): > 100 µM
- TGI (HCT-116 colon): > 100 µM
- TGI (HCT-15 colon): > 100 µM
- TGI (NCI-H460 lung): > 100 µM
- TGI (SNB-19 CNS): > 100 µM
- TGI (M14 melanoma): > 100 µM
- TGI (PC-3 prostate): > 100 µM
- TGI (HT29 colon): > 100 µM
- TGI (UACC-257 melanoma): > 100 µM
- TGI (SN12C renal): > 100 µM
- TGI (MOLT-4 leukemia): > 100 µM
- TGI (SNB-75 CNS): > 100 µM
- TGI (NCI/ADR-RES ovarian): > 100 µM
- TGI (NCI-H522 lung): > 100 µM
- TGI (HOP-62 NSCLC): > 100 µM
- TGI (SW-620 colon): > 100 µM
- TGI (ACHN renal): > 100 µM
- TGI (HOP-92 NSCLC): > 100 µM
- TGI (MDA-MB-231 breast): > 100 µM
- TGI (SR leukemia): > 100 µM

Compound: Cc1occc1C(=S)Nc1ccc(Cl)c(C(=O)OC(C)C2CC2)c1 (stereo unspecified)
- TGI (HS 578T breast): 69.1 µM
- TGI (786-0 renal): 52.5 µM
- TGI (SK-MEL-2 melanoma): 38.4 µM
- TGI (NCI-H226 lung): 33.6 µM
- TGI (OVCAR-4 ovarian): 40.5 µM
- TGI (A498 renal): 48.2 µM
- TGI (SF-295 CNS): 39 µM
- TGI (KM12 colon): 39.9 µM
- TGI (LOX IMVI melanoma): 49.5 µM
- TGI (HL-60(TB) leukemia): 54.1 µM
- TGI (BT-549 breast): 54.5 µM
- TGI (SF-539 CNS): 71.6 µM
- TGI (UACC-62 melanoma): 71.1 µM
- TGI (MDA-N): 38.4 µM
- TGI (CAKI-1 renal): 48.8 µM
- TGI (HCC-2998 colon): 39.5 µM
- TGI (IGROV1 ovarian): 35.2 µM
- TGI (UO-31 renal): 30.5 µM
- TGI (MALME-3M melanoma): 36.4 µM
- TGI (SF-268 CNS): 59.3 µM
- TGI (MDA-MB-435): 66.2 µM
- TGI (TK-10 renal): > 100 µM
- TGI (NCI-H23 lung): 40.1 µM
- TGI (T-47D breast): > 100 µM
- TGI (SK-MEL-28 melanoma): > 100 µM
- TGI (MCF7 breast): 57.3 µM
- TGI (OVCAR-3 ovarian): 35.3 µM
- TGI (SK-OV-3 ovarian): 50.5 µM
- TGI (RXF 393 renal): 39.4 µM
- TGI (DU-145 prostate): > 100 µM
- TGI (SK-MEL-5 melanoma): 31.8 µM
- TGI (COLO 205 colon): 51.3 µM
- TGI (CCRF-CEM leukemia): > 100 µM
- TGI (U251 CNS): 70.5 µM
- TGI (A549 NSCLC): > 100 µM
- TGI (OVCAR-8 ovarian): 43.2 µM
- TGI (OVCAR-5 ovarian): 61.2 µM
- TGI (RPMI-8226 leukemia): 60.1 µM
- TGI (HCT-116 colon): > 100 µM
- TGI (HCT-15 colon): 41.2 µM
- TGI (NCI-H460 lung): > 100 µM
- TGI (SNB-19 CNS): 39 µM
- TGI (M14 melanoma): 53.4 µM
- TGI (PC-3 prostate): 41.3 µM
- TGI (HT29 colon): 49 µM
- TGI (UACC-257 melanoma): > 100 µM
- TGI (SN12C renal): 41.6 µM
- TGI (MOLT-4 leukemia): 57.5 µM
- TGI (SNB-75 CNS): 68.9 µM
- TGI (NCI/ADR-RES ovarian): 65.1 µM
- TGI (NCI-H522 lung): 32.9 µM
- TGI (EKVX NSCLC): 54.9 µM
- TGI (HOP-62 NSCLC): 57.7 µM
- TGI (SW-620 colon): > 100 µM
- TGI (ACHN renal): 42 µM
- TGI (HOP-92 NSCLC): 51.5 µM
- TGI (MDA-MB-231 breast): 45.7 µM
- TGI (SR leukemia): 68.2 µM

Compound: CC(=C(C(N)=O)C(N)=O)C1C=C(c2cccs2)CC(c2ccc(Cl)cc2)=C1O (stereo unspecified)
- TGI (HS 578T breast): > 100 µM
- TGI (786-0 renal): > 100 µM
- TGI (SK-MEL-2 melanoma): > 100 µM
- TGI (NCI-H226 lung): > 100 µM
- TGI (OVCAR-4 ovarian): 78.8 µM
- TGI (A498 renal): > 100 µM
- TGI (SF-295 CNS): > 100 µM
- TGI (KM12 colon): > 100 µM
- TGI (LOX IMVI melanoma): 40.4 µM
- TGI (HL-60(TB) leukemia): > 100 µM
- TGI (BT-549 breast): > 100 µM
- TGI (UACC-62 melanoma): > 100 µM
- TGI (MDA-N): > 100 µM
- TGI (CAKI-1 renal): > 100 µM
- TGI (HCC-2998 colon): > 100 µM
- TGI (IGROV1 ovarian): > 100 µM
- TGI (UO-31 renal): > 100 µM
- TGI (SF-268 CNS): > 100 µM
- TGI (MDA-MB-435): > 100 µM
- TGI (TK-10 renal): > 100 µM
- TGI (NCI-H23 lung): > 100 µM
- TGI (T-47D breast): > 100 µM
- TGI (SK-MEL-28 melanoma): > 100 µM
- TGI (MCF7 breast): > 100 µM
- TGI (OVCAR-3 ovarian): > 100 µM
- TGI (SK-OV-3 ovarian): > 100 µM
- TGI (RXF 393 renal): > 100 µM
- TGI (DU-145 prostate): > 100 µM
- TGI (SK-MEL-5 melanoma): > 100 µM
- TGI (COLO 205 colon): > 100 µM
- TGI (CCRF-CEM leukemia): 79.4 µM
- TGI (U251 CNS): > 100 µM
- TGI (A549 NSCLC): > 100 µM
- TGI (OVCAR-8 ovarian): > 100 µM
- TGI (OVCAR-5 ovarian): > 100 µM
- TGI (RPMI-8226 leukemia): > 100 µM
- TGI (HCT-116 colon): > 100 µM
- TGI (HCT-15 colon): > 100 µM
- TGI (NCI-H460 lung): > 100 µM
- TGI (SNB-19 CNS): > 100 µM
- TGI (M14 melanoma): > 100 µM
- TGI (K-562 leukemia): > 100 µM
- TGI (PC-3 prostate): > 100 µM
- TGI (HT29 colon): > 100 µM
- TGI (UACC-257 melanoma): > 100 µM
- TGI (SN12C renal): > 100 µM
- TGI (MOLT-4 leukemia): > 100 µM
- TGI (SNB-75 CNS): > 100 µM
- TGI (NCI/ADR-RES ovarian): > 100 µM
- TGI (NCI-H522 lung): > 100 µM
- TGI (EKVX NSCLC): > 100 µM
- TGI (HOP-62 NSCLC): > 100 µM
- TGI (SW-620 colon): > 100 µM
- TGI (ACHN renal): > 100 µM
- TGI (HOP-92 NSCLC): > 100 µM
- TGI (MDA-MB-231 breast): > 100 µM
- TGI (SR leukemia): 81.6 µM
